test: Analysis of additives in the multi-layered plastic container before and after sterilization by irradiation; type: physicochemical; settings: After irradiation - dose of 25 kGy
Method: A physico-chemical study of the outer layers made of polypropylene before and after irradiation at 25 kGy was performed.

Compound | Quantity of additives in polypropylene (ppm)
CC(C)(C)c1cc(Cn2c(=O)n(Cc3cc(C(C)(C)C)c(O)c(C(C)(C)C)c3)c(=O)n(Cc3cc(C(C)(C)C)c(O)c(C(C)(C)C)c3)c2=O)cc(C(C)(C)C)c1O [IRGANOX 3114, 1,3,5-tris(3,5-di-tert-butyl-4-hydroxybenzyl)-s-triazine-2,4,6(1H,3H,5H)-trione] | Not detected
CC(C)(C)c1ccc(OP(Oc2ccc(C(C)(C)C)cc2C(C)(C)C)Oc2ccc(C(C)(C)C)cc2C(C)(C)C)c(C(C)(C)C)c1 [IRGAPHOS 168, phosphite tris(2,4-bis(1,1-dimethylethyl)-phenyl)] | Not detected
CC(C)(C)c1cc(CCC(=O)OCC(COC(=O)CCc2cc(C(C)(C)C)c(O)c(C(C)(C)C)c2)(COC(=O)CCc2cc(C(C)(C)C)c(O)c(C(C)(C)C)c2)COC(=O)CCc2cc(C(C)(C)C)c(O)c(C(C)(C)C)c2)cc(C(C)(C)C)c1O [IRGANOX 1010, pentaerythrityl tetrakis(3-(3,5-di-tert-butyl-4-hydroxyphenyl)-propionate)] | Not detected

From patent publication US8802209B2, “Multi-layered plastic polymeric container for the storage of pharmaceutical compositions” (Ceva Santé Animale, priority 2007, dated 2014)
